# Reference: patent US20230002360A1, “Heterocycloalkyl compounds as CCR2 / CCR5 antagonists” (SHENZHEN LINGFANG BIOTECH CO.,LTD, priority 2019, published 2023)
# pIC50: −log10 of the molar value.
# Assays:
# CYP2C19 = biological target: T1, CYP2C19 (Homo sapiens, UniProt P33261); assay: Inhibition of human liver microsomal CYP2C19 ((S)-mephenytoin probe); format: in vitro ADME; settings: human liver microsomes, read-out: Half inhibitory concentration IC50, CYP2C19
# T1 construct: from tissue; host or cells: human liver microsomes
# T1 sequence (P33261 whole entry): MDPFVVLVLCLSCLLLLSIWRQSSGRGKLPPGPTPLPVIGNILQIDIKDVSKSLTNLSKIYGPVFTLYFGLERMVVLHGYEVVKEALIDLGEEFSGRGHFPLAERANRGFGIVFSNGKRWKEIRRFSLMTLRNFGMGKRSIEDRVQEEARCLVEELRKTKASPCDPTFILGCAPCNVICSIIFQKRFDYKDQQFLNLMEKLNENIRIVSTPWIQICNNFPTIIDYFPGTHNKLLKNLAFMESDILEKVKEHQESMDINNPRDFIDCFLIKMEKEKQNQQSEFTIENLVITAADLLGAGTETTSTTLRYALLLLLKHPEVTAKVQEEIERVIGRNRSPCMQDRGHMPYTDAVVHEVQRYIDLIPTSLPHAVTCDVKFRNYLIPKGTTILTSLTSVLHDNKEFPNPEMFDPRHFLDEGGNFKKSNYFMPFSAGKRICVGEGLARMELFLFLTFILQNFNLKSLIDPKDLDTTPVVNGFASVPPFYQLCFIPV
# Procedure: (§1) Experimental Example 2. Inhibition of human liver microsomal cytochrome P450 isoenzymes (CYP1A2, CYP2C9, CYP2C19, CYP2D6 and CYP3A4) activity
# (§2) A total of 5 specific probe substrates of 5 CYP isozymes, which are phenacetin (PHenacetin, CYP1A2), diclofenac (Diclofenac, CYP2C9), (S)-mephenytoin ((S)-MepHenytoin, CYP2C19), dextromethorpHan (CYP2D6), and midazolam (Midazolam, CYP3A4), were incubated with human liver microsomes respectively. Then, reduced nicotinamide adenine dinucleotide phosphate (NADPH) was added to initiate reaction. After the reaction, the sample is processed and quantitatively detected for the concentrations of the five metabolites produced from the specific substrate, acetaminophen (AcetaminopHen), 4′-hydroxydiclofenac (4′-Hydroxydiclofenac), 4′-Hydroxymephenytoin (4′-HydroxymepHenytoin), Dextrorphan (DextrorpHan), and 1′-Hydroxymidazolam (1′-Hydroxymidazolam) by liquid chromatography-quadrupole mass spectrometry (LC-MS/MS) method to calculate the corresponding half inhibitory concentration (IC50).
# CYP3A4 = biological target: T2, CYP3A4 (Homo sapiens, UniProt P08684); assay: Inhibition of human liver microsomal CYP3A4 (midazolam probe); format: in vitro ADME; settings: for inhibitory effect on CYP3A4 (in words): conclusion from Table 2; for pIC50: human liver microsomes, midazolam, read-out: Half inhibitory concentration IC50, CYP3A4-M
# T2 construct: from tissue; host or cells: human liver microsomes
# T2 sequence (P08684 whole entry): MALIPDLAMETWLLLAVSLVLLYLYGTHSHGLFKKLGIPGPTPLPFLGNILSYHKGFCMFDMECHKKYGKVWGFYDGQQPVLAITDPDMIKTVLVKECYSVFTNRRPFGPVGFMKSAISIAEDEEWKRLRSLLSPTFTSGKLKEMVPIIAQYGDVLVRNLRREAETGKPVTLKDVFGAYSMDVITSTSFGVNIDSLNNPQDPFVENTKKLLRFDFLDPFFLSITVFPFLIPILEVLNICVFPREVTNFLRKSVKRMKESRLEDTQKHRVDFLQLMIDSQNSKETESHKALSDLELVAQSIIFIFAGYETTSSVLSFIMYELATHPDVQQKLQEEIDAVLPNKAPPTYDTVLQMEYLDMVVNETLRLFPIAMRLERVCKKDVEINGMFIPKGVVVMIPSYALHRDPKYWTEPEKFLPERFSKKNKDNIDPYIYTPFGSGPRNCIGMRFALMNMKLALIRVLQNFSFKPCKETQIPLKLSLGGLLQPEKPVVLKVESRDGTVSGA
# Procedure: Inhibition of human liver microsomal cytochrome P450 isoenzymes (CYP1A2, CYP2C9, CYP2C19, CYP2D6 and CYP3A4) activity
# A total of 5 specific probe substrates of 5 CYP isozymes, which are phenacetin (PHenacetin, CYP1A2), diclofenac (Diclofenac, CYP2C9), (S)-mephenytoin ((S)-MepHenytoin, CYP2C19), dextromethorpHan (CYP2D6), and midazolam (Midazolam, CYP3A4), were incubated with human liver microsomes respectively. Then, reduced nicotinamide adenine dinucleotide phosphate (NADPH) was added to initiate reaction.
# CYP1A2 = biological target: T3, CYP1A2 (Homo sapiens, UniProt P05177); assay: Inhibition of human liver microsomal CYP1A2 (phenacetin probe); format: in vitro ADME; settings: human liver microsomes, read-out: Half inhibitory concentration IC50, CYP1A2
# T3 construct: from tissue; host or cells: human liver microsomes
# T3 sequence (P05177 1-516): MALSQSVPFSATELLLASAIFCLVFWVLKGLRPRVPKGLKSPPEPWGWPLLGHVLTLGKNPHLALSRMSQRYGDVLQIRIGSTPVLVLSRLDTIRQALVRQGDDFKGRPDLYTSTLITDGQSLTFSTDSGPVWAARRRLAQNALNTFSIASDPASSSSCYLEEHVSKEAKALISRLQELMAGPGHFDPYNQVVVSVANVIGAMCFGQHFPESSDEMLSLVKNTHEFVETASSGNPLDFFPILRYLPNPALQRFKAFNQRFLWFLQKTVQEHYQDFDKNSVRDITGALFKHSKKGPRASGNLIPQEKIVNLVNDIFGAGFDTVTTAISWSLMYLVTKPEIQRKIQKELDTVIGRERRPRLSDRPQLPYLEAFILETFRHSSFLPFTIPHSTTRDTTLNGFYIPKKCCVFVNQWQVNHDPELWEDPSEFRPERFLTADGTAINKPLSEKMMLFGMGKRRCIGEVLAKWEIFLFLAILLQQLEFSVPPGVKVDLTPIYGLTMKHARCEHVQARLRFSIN
# Procedure: as §1, §2
# CYP2D6 = biological target: T4, CYP2D6 (Homo sapiens, UniProt P10635); assay: Inhibition of human liver microsomal CYP2D6 (dextromethorphan probe); format: in vitro ADME; settings: human liver microsomes, read-out: Half inhibitory concentration IC50, CYP2D6
# T4 construct: from tissue; host or cells: human liver microsomes
# T4 sequence (P10635 whole entry): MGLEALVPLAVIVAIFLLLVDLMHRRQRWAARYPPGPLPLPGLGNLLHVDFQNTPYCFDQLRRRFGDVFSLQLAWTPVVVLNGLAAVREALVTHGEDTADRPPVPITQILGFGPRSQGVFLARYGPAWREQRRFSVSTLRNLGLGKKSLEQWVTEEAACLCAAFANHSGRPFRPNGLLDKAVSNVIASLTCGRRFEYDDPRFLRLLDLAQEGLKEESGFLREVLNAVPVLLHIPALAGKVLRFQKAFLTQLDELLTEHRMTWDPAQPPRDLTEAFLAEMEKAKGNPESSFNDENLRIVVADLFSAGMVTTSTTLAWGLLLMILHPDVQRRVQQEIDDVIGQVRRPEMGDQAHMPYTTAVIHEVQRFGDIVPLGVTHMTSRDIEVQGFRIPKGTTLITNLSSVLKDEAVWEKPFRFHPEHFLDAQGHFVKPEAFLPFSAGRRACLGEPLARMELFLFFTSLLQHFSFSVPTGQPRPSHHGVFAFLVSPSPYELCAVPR
# Procedure: as §1, §2
# CYP2C9 = biological target: T5, CYP2C9 (Homo sapiens, UniProt P11712); assay: Inhibition of human liver microsomal CYP2C9 (diclofenac probe); format: in vitro ADME; settings: human liver microsomes, read-out: Half inhibitory concentration IC50, CYP2C9
# T5 construct: from tissue; host or cells: human liver microsomes
# T5 sequence (P11712 whole entry): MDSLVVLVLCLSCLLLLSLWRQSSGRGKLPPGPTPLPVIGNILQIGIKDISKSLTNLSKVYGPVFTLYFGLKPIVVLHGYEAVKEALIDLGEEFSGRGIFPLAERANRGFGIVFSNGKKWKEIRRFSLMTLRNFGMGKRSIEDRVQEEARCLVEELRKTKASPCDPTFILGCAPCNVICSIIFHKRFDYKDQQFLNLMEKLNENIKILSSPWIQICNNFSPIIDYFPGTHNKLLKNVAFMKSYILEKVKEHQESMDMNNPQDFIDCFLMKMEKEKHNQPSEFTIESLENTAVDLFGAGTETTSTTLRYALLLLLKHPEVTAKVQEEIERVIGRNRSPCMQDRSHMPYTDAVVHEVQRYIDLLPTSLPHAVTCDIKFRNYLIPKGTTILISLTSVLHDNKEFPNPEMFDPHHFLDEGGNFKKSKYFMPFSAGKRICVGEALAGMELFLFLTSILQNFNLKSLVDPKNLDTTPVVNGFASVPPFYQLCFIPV
# Procedure: as §1, §2
# CCR2 = biological target: T6, CCR2 (Homo sapiens, UniProt P41597); assay: FLIPR calcium assay, CCR2 cell line; format: cell-based; settings: HEK293 host cell, MCP-1 agonist, intracellular calcium signal; read-out: IC50 (nM) test results for FLIPR detection, CCR2
# T6 construct: expressed in transfected cells; host or cells: HEK293 (clone C7, passage P6)
# T6 sequence (P41597 whole entry, species assumed): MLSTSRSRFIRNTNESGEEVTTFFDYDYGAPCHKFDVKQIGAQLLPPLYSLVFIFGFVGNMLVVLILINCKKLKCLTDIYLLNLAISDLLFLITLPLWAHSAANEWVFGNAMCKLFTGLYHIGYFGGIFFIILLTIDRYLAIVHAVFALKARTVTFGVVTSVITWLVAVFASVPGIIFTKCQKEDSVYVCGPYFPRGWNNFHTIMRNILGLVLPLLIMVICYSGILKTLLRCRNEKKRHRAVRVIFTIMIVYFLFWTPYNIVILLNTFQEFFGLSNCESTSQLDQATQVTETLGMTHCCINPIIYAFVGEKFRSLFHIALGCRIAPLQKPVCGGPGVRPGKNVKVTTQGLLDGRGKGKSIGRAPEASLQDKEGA
# Procedure: (§3) The changes in intracellular calcium signal were detected by FLIPR Calcium assay, and the compound's IC50 value was used as an indicator to evaluate inhibitory effect of the compound on CCR2 and CCR5 receptors.
# (§4) 1, Cell line: Cells were seeded and incubated overnight in an incubator at 37° C. and 5% CO2.
# (§5) CCR2/CCR5 density: 1 M (20K/Well)
# (§6) 2, Reagents: Fluo-4 Direct, (Invitrogen, Cat #f10471)
# (§7) The compound was dissolved in DMSO to prepare a 10 mM solution, and the compound solution was placed in a nitrogen gas box.
# (§8) MCP-1 was serially diluted with FLIPR assay buffer starting from 0.5 μM at a dilution ratio of 1:2 and a total of 10 gradients were diluted (final 100 nM). RANTES is serially diluted with FLIPR assay buffer starting from 0.5 μM at a dilution ratio of 1:3 and a total of 10 gradients were diluted (final 100 nM). According to the compound plate-map, 20 μL of the serially diluted compound buffers were added to each well of the DRC plate respectively.
# (§9) The standard compound was diluted with DMSO 1:3 starting from 1 mM at a dilution ratio of 1:3 and a total of 11 gradients were diluted. The test compound was diluted with DMSO 1:3 starting from 2 mM at a dilution ratio of 1:3 and a total of 11 gradients were diluted.
# (§10) c) taking the cell plate from the incubator, and gently distributing 20 μL of 2× Fluo-4 Direct non-washing loading buffer to each well of the 384-well cell culture plate using a pipette, wherein each of wells in the cell plate has a final volume of 40 μL.
# (§11) d) Incubating at 37° C. and 5% CO2 for 50 minutes, and at room temperature for 10 minutes.
# (§12) e) removing the cell plate from the incubator and placing in FLIPR, and putting the composite plate and the tip box into FLIPR.
# (§13) 5) Calculating from Read 90 to the maximum allowable “maximum-minimum”, and calculating the EC80 value of each of cell lines by using FLIPR
# (§14) 6) Preparing the reference agonist compound at a concentration of 5×EC80
# (§15) 2) Transferring […] of the reference agonist compound at a concentration of 5×EC80 from the composite plate to the cell plate.
# (§16) 3) Reading the fluorescence signal.
# (§17) 4) Calculating from Read 90 to the maximum allowable “maximum-minimum”.
# (§18) h) Analyzing the data and calculating the IC50 value of the compound by using Prism.
# CCR5 = biological target: T7, CCR5 (Homo sapiens, UniProt P51681); assay: FLIPR calcium assay, CCR5 cell line; format: cell-based; settings: HEK293 host cell, RANTES agonist, intracellular calcium signal; read-out: IC50 (nM) test results for FLIPR detection, CCR5
# T7 construct: expressed in transfected cells; host or cells: HEK293 (clone C13, passage P4)
# T7 sequence (P51681 whole entry, species assumed): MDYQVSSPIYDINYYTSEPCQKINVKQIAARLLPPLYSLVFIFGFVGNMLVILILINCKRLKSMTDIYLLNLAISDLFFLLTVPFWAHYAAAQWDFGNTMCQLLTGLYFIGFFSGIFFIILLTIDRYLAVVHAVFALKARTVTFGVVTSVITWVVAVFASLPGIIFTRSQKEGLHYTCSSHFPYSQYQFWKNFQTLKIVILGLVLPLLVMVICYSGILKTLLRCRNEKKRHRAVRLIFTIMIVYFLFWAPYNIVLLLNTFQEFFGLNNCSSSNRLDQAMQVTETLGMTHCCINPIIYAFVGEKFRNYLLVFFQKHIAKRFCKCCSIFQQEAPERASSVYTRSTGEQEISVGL
# Procedure: as §3, §4, §5, §6, §7, §8, §9, §10, §11, §12, §13, §14, §15, §16, §17, §18
# [1] = test system: human liver microsomal cytochrome P450 isoenzymes; assay: Inhibition of human liver microsomal cytochrome P450 isoenzymes, overall conclusion; format: in vitro ADME; settings: conclusion from Table 2
# Procedure: as §1, §2
SMILES,IC50 (CCR2) [nM],IC50 (CCR5) [nM],other results
"CCCCOCCOc1ccc(-c2ccc3c(c2)/C=C(/C(=O)Nc2ccc([S@@+]([O-])Cc4cncn4CCC)cc2)CCCN3CC(C)C)cc1 [(CVC), Cenicriviroc, reference compound]",,,pIC50 (CYP2C19): < 4.30; inhibitory effect on CYP3A4 (in words) (CYP3A4): strong inhibitory effect; pIC50 (CYP3A4): 6.12; pIC50 (CYP1A2): < 4.30; pIC50 (CYP2D6): < 4.30; pIC50 (CYP2C9): < 4.30
"CCCCOCCOc1ccc(-c2ccc3c(c2)/C=C(/C(=O)Nc2ccc([S@@+]([O-])Cc4cncn4CCC)cc2)CCCN3CC2CC2)cc1 [Reference A, reference compound]",,,pIC50 (CYP2C19): < 4.30; inhibitory effect on CYP3A4 (in words) (CYP3A4): strong inhibitory effect; pIC50 (CYP3A4): 6.10; pIC50 (CYP1A2): < 4.30; pIC50 (CYP2D6): < 4.30; pIC50 (CYP2C9): < 4.30
CCCCOCCOc1ccc(-c2ccc3c(c2)/C=C(/C(=O)Nc2ccc([S@@+]([O-])Cc4c(C)ncn4CC)cc2)CCCN3CC2CCOCC2)cc1 [WX002],3,,pIC50 (CYP2C19): < 4.30; risk of inhibiting the activity of human liver microsomal cytochrome P450 isoenzymes (in words) [1]: no risk of inhibiting the activity; pIC50 (CYP3A4): 4.88; pIC50 (CYP1A2): < 4.30; pIC50 (CYP2D6): < 4.30; pIC50 (CYP2C9): 4.96
CCCCOCCOc1ccc(-c2ccc3c(c2)C=C(C(=O)Nc2ccc([S@+]([O-])Cc4c(C)ncn4CC)cc2)CCN3CC2CCCOC2)cc1 (some centres unmarked) [WX003],37,8.27,
CCCCOCCOc1ccc(-c2ccc3c(c2)/C=C(/C(=O)Nc2ccc([S@+]([O-])Cc4c(C)ncn4CC)cc2)CCCN3CC2COC2)cc1 [WX004],3.04,6.3,
CCCCOCCOc1ccc(-c2ccc3c(c2)/C=C(/C(=O)Nc2ccc([S@+]([O-])Cc4c(C)ncn4CC)cc2)CCCCN3CC2COC2)cc1 [WX005],9.2,4.2,
CCCCOCCOc1ccc(-c2ccc3c(c2)/C=C(/C(=O)Nc2ccc([S@+]([O-])Cc4c(C)ncn4CC)cc2)CCCCN3CC2CCCOC2)cc1 (some centres unmarked) [WX006],7.51,8.44,
CCCCOCCOc1ccc(-c2ccc3c(c2)/C=C(/C(=O)Nc2ccc([S@+]([O-])Cc4c(C)ncn4CC)cc2)CCCCN3CC2CCCOC2)cc1 (some centres unmarked) [WX007],6.76,6.18,
CCCCOCCOc1ccc(-c2ccc3c(c2)/C=C(/C(=O)Nc2ccc([S@+]([O-])Cc4c(C)ncn4CC)cc2)CCCN3CC2CCCCO2)cc1 (some centres unmarked) [WX008],3.4,6.04,
CCCCOCCOc1ccc(-c2ccc3c(c2)/C=C(/C(=O)Nc2ccc([S@+]([O-])Cc4c(C)ncn4CC)cc2)CCCN3CC2CCN(C)CC2)cc1 [WX009],4.38,6.78,
CCCCOCCOc1ccc(-c2ccc3c(c2)/C=C(/C(=O)Nc2ccc([S@+]([O-])Cc4c(C)ncn4CC)cc2)CCCN3CC2CCOC2)cc1 (some centres unmarked) [WX013],3.11,5.45,
CCCCOCCOc1ccc(-c2ccc3c(c2)/C=C(/C(=O)Nc2ccc([S@+]([O-])Cc4c(C)ncn4CC)cc2)CCCN3CC2CCOC2)cc1 (some centres unmarked) [WX014],3.78,6.28,
CCCCOCCOc1ccc(-c2ccc3c(c2)C=C(C(=O)Nc2ccc([S@+]([O-])Cc4c(C)ncn4CC)cc2)CCN3CC2CCN(C)CC2)cc1 [WX018],17.9,3.35,

# More lines, in order of falling IC50 (CCR2), values ahead:
IC50 (CCR2) [nM],IC50 (CCR5) [nM],SMILES,other results
2.47,,CCCCOCCOc1ccc(-c2ccc3c(c2)/C=C(/C(=O)Nc2ccc([S@@+]([O-])Cc4c(C)ncn4CC)cc2)CCCN3CC2CCOCC2)cc1 [WX017],
1.33,4.25,CCCCOCCOc1ccc(-c2ccc3c(c2)/C=C(/C(=O)Nc2ccc([S@+]([O-])Cc4c(C)ncn4CC)cc2)CCCN3CC2CCOCC2)cc1 [WX001],pIC50 (CYP2C19): 5.85; inhibitory effect on CYP3A4 (in words) (CYP3A4): no inhibitory effect; pIC50 (CYP3A4): < 4.30; pIC50 (CYP1A2): < 4.30; pIC50 (CYP2D6): < 4.30; pIC50 (CYP2C9): < 4.30
1.19,3.15,CCCCOCCOc1ccc(-c2ccc3c(c2)/C=C(/C(=O)Nc2ccc([S@+]([O-])Cc4c(C)ncn4CC)cc2)CCCN3C[C@H]2CCCO2)cc1 [WX028],
0.69,1.38,CCCCOCCOc1ccc(-c2ccc3c(c2)/C=C(/C(=O)Nc2ccc([S@+]([O-])Cc4c(C)ncn4CC)cc2)CCCN3CC2COCCO2)cc1 (some centres unmarked) [WX025],
0.69,1.37,CCCCOCCOc1ccc(-c2ccc3c(c2)/C=C(/C(=O)Nc2ccc([S@+]([O-])Cc4c(C)ncn4CC)cc2)CCCN3CC2COCCO2)cc1 (some centres unmarked) [WX026],
0.41,1.44,CCCCOCCOc1ccc(-c2ccc3c(c2)/C=C(/C(=O)Nc2ccc([S@+]([O-])Cc4c(C)ncn4CC)cc2)CCCN3CC2CCCO2)cc1 (some centres unmarked) [WX027],
